Patent US8492310B2, “Herbicidal compositions containing benzoylpyrazole compounds” (priority 2008, dated 2013)
Where two headings read alike, the source gives them in different places.

What was measured:
Type in all cases: in vivo
[1] = system: crabgrass (Digitaria sanguinalis L.); assay: Foliar treatment pot test, visual growth inhibition rate, crabgrass (DS); details: Digitaria sanguinalis, foliar
How it was run: (§1)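 Seeds were sown in upland soil pots, and plants were sprayed on the foliage at a predetermined leaf stage with herbicidal compositions diluted in water at 300 L/ha. Growth inhibition was rated visually. Expected combination activity was calculated by Colby's formula to assess synergy.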

[2] = system: barnyardgrass (Echinochloa crus-qalli L.); assay: Foliar treatment pot test, visual growth inhibition rate, barnyardgrass (EC); details: 504 h, 4.0-5.0 leaf stage, 21 DAT, read-out: Growth inhibition rate (%) of EC Measured value
Text: (§2) When the herbicidal activity in a case where two active ingredients are combined, is larger than the simple sum of the respective herbicidal activities of the two active ingredients (the expected activity), it is called a synergistic effect. The activity expected by the combination of two active ingredients can be calculated as follows (Colby S. R., “Weed”, vol. 15, p. 20-22, 1967). E=α+β−(α×β÷100) where
(§3) Upland field soil was put into a 1/1,000,000 hectare pot, and seeds of various plants (barnyardgrass (Echinochloa crus-qalli L.), crabgrass (Digitaria sanguinalis L.), giant foxtail (Setaria faberi Herrm.), velvetleaf (Abutilon theophrasti MEDIC.) and prickly sida (Sida spinosa L.)) were sown. When the respective plants reached predetermined leaf stage, herbicidal compositions in predetermined amounts were diluted with water in an amount corresponding to 300 L/ha and applied for foliar treatment by a small sprayer.
(§4) Further, in accordance with the above Colby's formula, the growth inhibition rate (calculated value) was calculated. In Tables, with respect to the compound Q, Compound Nos. in Table 1 are described, and with respect to other herbicidal compounds, common names are described. Further, in Tables, barnyardgrass is represented by “EC”, crabgrass by “DS”, giant foxtail by “SF”, velvetleaf by “AT”, and prickly sida by “SS”.

[3] = system: giant foxtail (Setaria faberi Herrm.); assay: Foliar treatment pot test, visual growth inhibition rate, giant foxtail (SF); details: 336 h, read-out: Growth inhibition rate (%) of SF Measured value
Text: as §2, §3, §4

[4] = system: velvetleaf (Abutilon theophrasti MEDIC.); assay: Foliar treatment pot test, visual growth inhibition rate, velvetleaf (AT)
How it was run: as §1

CCCCCCCCSC(=O)Oc1cc(Cl)nnc1-c1ccccc1 [Pyridate, pyridate]
inhibition at 200 g/ha ([1]; 528 h, 4.0-5.0 leaf stage, 22 DAT, 200 g/ha, read-out: Growth inhibition rate (%) of DS Measured value): 0% | inhibition at 100 g/ha ([2]; 100 g/ha): 0% | inhibition at 100 g/ha ([3]; 4.0-5.0 leaf stage, 14 DAT, 100 g/ha): 0% | inhibition at 200 g/ha ([4]; Abutilon theophrasti, foliar, 336 h, 4.1-4.5 leaf stage, 14 DAT, 200 g/ha, read-out: Growth inhibition rate (%) of AT Measured value): 30%

CCn1ncc(C(=O)c2ccc(S(C)(=O)=O)c(OCCOC)c2C)c1OC(C)OC(=O)OC (centres unmarked) [NO. 4, 1-(1-ethyl-4-(3-(2-methoxyethoxy)-2-methyl-4-(methylsulfonyl)benzoyl)-1H-pyrazol-5-yloxy)ethyl methyl carbonate]
inhibition at 7 g/ha ([1]; 336 h, read-out: Growth inhibition rate (%) of DS Measured value, 5.0-5.5 leaf stage, 14 DAT, 7 g/ha): 75% | inhibition at 5 g/ha ([1]; 480 h, read-out: Growth inhibition rate (%) of DS Measured value, 3.6-3.8 leaf stage, 20 DAT, 5 g/ha): 40% | inhibition at 10 g/ha ([1]; 480 h, read-out: Growth inhibition rate (%) of DS Measured value, 3.6-3.8 leaf stage, 20 DAT, 10 g/ha): 50% | inhibition at 20 g/ha ([1]; 480 h, read-out: Growth inhibition rate (%) of DS Measured value, 3.6-3.8 leaf stage, 20 DAT, 20 g/ha): 73% | inhibition at 5 g/ha ([1]; 480 h, read-out: Growth inhibition rate (%) of DS Measured value, 3.7-4.0 leaf stage, 20 DAT, 5 g/ha): 93% | inhibition at 5 g/ha ([1]; 480 h, read-out: Growth inhibition rate (%) of DS Measured value, 4.0-4.2 leaf stage, 20 DAT, 5 g/ha): 40% | inhibition at 10 g/ha ([1]; 480 h, read-out: Growth inhibition rate (%) of DS Measured value, 4.0-4.2 leaf stage, 20 DAT, 10 g/ha): 50% | inhibition at 20 g/ha ([1]; 480 h, read-out: Growth inhibition rate (%) of DS Measured value, 4.0-4.2 leaf stage, 20 DAT, 20 g/ha): 73% | inhibition at 5 g/ha ([1]; 480 h, read-out: Growth inhibition rate (%) of DS Measured value, 4.5-5.2 leaf stage, 20 DAT, 5 g/ha): 53% | inhibition at 10 g/ha ([1]; 480 h, read-out: Growth inhibition rate (%) of DS Measured value, 4.5-5.2 leaf stage, 20 DAT, 10 g/ha): 89% | inhibition at 10 g/ha ([1]; 480 h, read-out: Growth inhibition rate (%) of DS Measured value, 5.0-5.2 leaf stage, 20 DAT, 10 g/ha): 93% | inhibition at 20 g/ha ([1]; 480 h, read-out: Growth inhibition rate (%) of DS Measured value, 5.0-5.2 leaf stage, 20 DAT, 20 g/ha): 98% | inhibition at 5 g/ha ([1]; 480 h, read-out: Growth inhibition rate (%) of DS Measured value, 5.1-5.2 leaf stage, 20 DAT, 5 g/ha): 48% | inhibition at 10 g/ha ([1]; 480 h, read-out: Growth inhibition rate (%) of DS Measured value, 5.1-5.2 leaf stage, 20 DAT, 10 g/ha): 73% | inhibition at 5 g/ha ([1]; 504 h, read-out: Growth inhibition rate (%) of DS Measured value, 4.0-5.1 leaf stage, 21 DAT, 5 g/ha): 75% | inhibition at 20 g/ha ([1]; 528 h, read-out: Growth inhibition rate (%) of DS Measured value, 4.8-5.5 leaf stage, 22 DAT, 20 g/ha): 94% | inhibition at 7 g/ha ([1]; 552 h, read-out: Growth inhibition rate (%) of DS Measured value, 4.0-5.1 leaf stage, 23 DAT, 7 g/ha): 80% | inhibition at 10 g/ha ([1]; 552 h, read-out: Growth inhibition rate (%) of DS Measured value, 4.5-5.3 leaf stage, 23 DAT, 10 g/ha): 87% | inhibition at 20 g/ha ([1]; 552 h, read-out: Growth inhibition rate (%) of DS Measured value, 4.5-5.3 leaf stage, 23 DAT, 20 g/ha): 99% | inhibition at 7 g/ha [3]: 75% | Growth inhibition rate (%) of AT Measured value ([4]; 3.0-4.0 leaf stage, 14 DAT, 15 g/ha): 80% | Growth inhibition rate (%) of AT Measured value ([4]; 4.0-4.2 leaf stage, 20 DAT, 20 g/ha): 98% | Growth inhibition rate (%) of AT Measured value ([4]; 4.2-4.3 leaf stage, 20 DAT, 5 g/ha): 58% | Growth inhibition rate (%) of AT Measured value ([4]; 4.2-4.3 leaf stage, 20 DAT, 10 g/ha): 65% | inhibition at 7 g/ha ([4]; Abutilon theophrasti, foliar, 336 h, read-out: Growth inhibition rate (%) of AT Measured value, 3.0-4.0 leaf stage, 14 DAT, 7 g/ha): 70% | inhibition at 5 g/ha ([4]; Abutilon theophrasti, foliar, 480 h, read-out: Growth inhibition rate (%) of AT Measured value, 4.0-4.2 leaf stage, 20 DAT, 5 g/ha): 48% | inhibition at 10 g/ha ([4]; Abutilon theophrasti, foliar, 480 h, read-out: Growth inhibition rate (%) of AT Measured value, 4.0-4.2 leaf stage, 20 DAT, 10 g/ha): 73% | inhibition at 5 g/ha ([4]; Abutilon theophrasti, foliar, 480 h, read-out: Growth inhibition rate (%) of AT Measured value, 4.1-4.2 leaf stage, 20 DAT, 5 g/ha): 55% | inhibition at 10 g/ha ([4]; Abutilon theophrasti, foliar, 480 h, read-out: Growth inhibition rate (%) of AT Measured value, 4.1-4.2 leaf stage, 20 DAT, 10 g/ha): 63% | inhibition at 10 g/ha ([4]; Abutilon theophrasti, foliar, 480 h, read-out: Growth inhibition rate (%) of AT Measured value, 4.2-4.3 leaf stage, 20 DAT, 10 g/ha): 63% | inhibition at 20 g/ha ([4]; Abutilon theophrasti, foliar, 480 h, read-out: Growth inhibition rate (%) of AT Measured value, 4.2-4.3 leaf stage, 20 DAT, 20 g/ha): 70% | inhibition at 5 g/ha ([4]; Abutilon theophrasti, foliar, 504 h, read-out: Growth inhibition rate (%) of AT Measured value, 4.0-4.3 leaf stage, 21 DAT, 5 g/ha): 35% | inhibition at 10 g/ha ([4]; Abutilon theophrasti, foliar, 504 h, read-out: Growth inhibition rate (%) of AT Measured value, 4.0-4.3 leaf stage, 21 DAT, 10 g/ha): 60% | inhibition at 5 g/ha ([4]; Abutilon theophrasti, foliar, 504 h, read-out: Growth inhibition rate (%) of AT Measured value, AT 4.0-4.3 leaf stage, 21 DAT, active ingredient 5 g/ha): 35% | inhibition at 10 g/ha ([4]; Abutilon theophrasti, foliar, 504 h, read-out: Growth inhibition rate (%) of AT Measured value, AT 4.0-4.3 leaf stage, 21 DAT, active ingredient 10 g/ha): 60% | inhibition at 5 g/ha ([4]; Abutilon theophrasti, foliar, 528 h, read-out: Growth inhibition rate (%) of AT Measured value, 4.5-5.0 leaf stage, 22 DAT, 5 g/ha): 40% | inhibition at 10 g/ha ([4]; Abutilon theophrasti, foliar, 528 h, read-out: Growth inhibition rate (%) of AT Measured value, 4.5-5.0 leaf stage, 22 DAT, 10 g/ha): 50% | inhibition at 20 g/ha ([4]; Abutilon theophrasti, foliar, 528 h, read-out: Growth inhibition rate (%) of AT Measured value, 4.5-5.0 leaf stage, 22 DAT, 20 g/ha): 90% | inhibition at 5 g/ha ([4]; Abutilon theophrasti, foliar, 552 h, read-out: Growth inhibition rate (%) of AT Measured value, 3.0-4.2 leaf stage, 23 DAT, 5 g/ha): 75% | inhibition at 10 g/ha ([4]; Abutilon theophrasti, foliar, 552 h, read-out: Growth inhibition rate (%) of AT Measured value, 3.0-4.2 leaf stage, 23 DAT, 10 g/ha): 90% | inhibition at 20 g/ha ([4]; Abutilon theophrasti, foliar, 552 h, read-out: Growth inhibition rate (%) of AT Measured value, 3.0-4.2 leaf stage, 23 DAT, 20 g/ha): 95%

COC(=O)c1sccc1S(=O)(=O)NC(=O)Nc1nc(C)nc(OC)n1 [Thifensulfuron-methyl]
inhibition at 5 g/ha ([2]; 5 g/ha): 0% | inhibition at 5 g/ha ([3]; 4.0-5.0 leaf stage, 14 DAT, 5 g/ha): 0%
